Laboratory results reported in publication PMC4357015, “Structure, Function and Inhibition of the Phosphoethanolamine Methyltransferases of the Human Malaria Parasites Plasmodium vivax and Plasmodium knowlesi” (Scientific Reports, 2015).

Legend:
PkPMT [1] = target: T1, PkPMT (Plasmodium knowlesi, UniProt A0A384KJX3); experiment: radiometric PMT transmethylation assay, inhibition of PkPMT; type: biochemical
T1 sequence (A0A384KJX3 1-264): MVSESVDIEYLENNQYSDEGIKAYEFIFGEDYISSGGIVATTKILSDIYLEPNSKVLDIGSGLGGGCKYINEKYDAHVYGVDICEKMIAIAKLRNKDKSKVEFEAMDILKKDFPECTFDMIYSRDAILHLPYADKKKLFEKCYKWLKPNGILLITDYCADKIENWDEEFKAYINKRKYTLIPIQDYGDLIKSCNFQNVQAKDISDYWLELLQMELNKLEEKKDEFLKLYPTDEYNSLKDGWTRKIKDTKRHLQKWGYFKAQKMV
Procedure: (§1) Figure 3 Amodiaquine (AQ) and NSC158011 inhibit the activity of PvPMT and PkPMT. Enzyme inhibition assays with different concentrations of Amodiaquine (AQ), NSC158011 and Chloroquine (CQ) were carried out at constant P-Etn (2 mM) and SAM (1.5 mM) concentrations. The activity in the absence of any drug was taken as 100% and % enzyme activity was calculated in the presence of different drug concentrations (100, 500, 1000 μM). To determine the concentration that results in 50% inhibition of enzyme activity (IC50), the data were fitted to a non-linear regression analysis in the following equation Y = 100/(1 + ([X]/IC50)), where Y is % enzyme activity and X is drug concentration using Graph pad software.
(§2) For enzyme kinetics studies recombinant histidine-tagged proteins were expressed using 1 mM IPTG for 4 h, purified using Ni-affinity purification and dialyzed. As expected, purified proteins migrated in SDS-PAGE gels at approximately 31 kDa. The purified proteins were stored in HEPES-KOH buffer (pH 7.4) at 4°C and were assayed within a month of purification. During this time, the integrity of the protein was assessed by SDS-PAGE. The kinetic properties of enzymes were assessed using radiometric assay wherein incorporation of radioactive labeled methyl donor (100nCi [methyl-^14C] SAM, Perkin elmer NEC363010UC) or (200nCi [methyl-^3H] SAM, Perkin Elmer NET155H250UC) was measured. […]

PvPMT [2] = target: T2, PvPMT (Plasmodium vivax, UniProt A5K867); experiment: radiometric PMT transmethylation assay, inhibition of PvPMT; type: biochemical
T2 sequence (A5K867 1-264): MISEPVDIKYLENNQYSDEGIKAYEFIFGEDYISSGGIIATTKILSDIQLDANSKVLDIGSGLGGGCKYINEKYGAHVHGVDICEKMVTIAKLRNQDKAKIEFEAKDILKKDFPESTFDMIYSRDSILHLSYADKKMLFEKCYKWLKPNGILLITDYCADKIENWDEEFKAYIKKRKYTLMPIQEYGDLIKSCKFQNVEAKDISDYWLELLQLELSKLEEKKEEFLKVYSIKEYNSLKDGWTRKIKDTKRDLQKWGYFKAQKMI
Procedure: as §1, §2

PkPMT [3] = target: T1, PkPMT; experiment: kinetic parameters of PkPMT, radiometric assay; type: biochemical; details: varied substrate, other constant (SAM 1.5 mM or P-Etn 2.0 mM)
Procedure: (§3) Figure 2 Analysis of kinetic parameters of P.vivax (top panel) and P. knowlesi PMT enzymes (bottom panel). The Km values for phosphoethanolamine (P-Etn) was determined under standard assay conditions with varying concentrations of P-Eth (0–800 μM) and at constant S-adenosylmethionine (SAM) concentration of 1.5 mM. The Km values for SAM were determined under standard assay conditions with varying concentrations of SAM (0–600 μM) and at constant P-Etn concentration of 2.0 mM. All data were fitted to the Michaelis-Menten equation, v = (kcat [Et][S])/(Km + [S]) using Graph pad software.
(§4) For enzyme kinetics studies recombinant histidine-tagged proteins were expressed using 1 mM IPTG for 4 h, purified using Ni-affinity purification and dialyzed. As expected, purified proteins migrated in SDS-PAGE gels at approximately 31 kDa. The purified proteins were stored in HEPES-KOH buffer (pH 7.4) at 4°C and were assayed within a month of purification. During this time, the integrity of the protein was assessed by SDS-PAGE. The kinetic properties of enzymes were assessed using radiometric assay wherein incorporation of radioactive labeled methyl donor (100nCi [methyl-^14C] SAM, Perkin elmer NEC363010UC) or (200nCi [methyl-^3H] SAM, Perkin Elmer NET155H250UC) was measured. The enzymatic assay conditions were carried out in 100 μl volume containing 0.1 M Hepes, KOH (pH8.6), 2 mM Na2EDTA and10% glycerol. For NSC158011 related studies, 10% DMSO was added to the reaction mixture. Purified enzyme (322 nM) was used in each reaction and the reactions were incubated at 37°C for 30 minutes, thereafter the reaction was terminated using 1 ml cold water. Afterwards, the product was purified by batch purification using AG (H+ resin) (Biorad # 142-1451) using the protocol provided by the manufacturer. The product was eluted from resin using 1.5 ml of 0.1 N HCl and total radioactivity was measured using the scintillation cocktail (Biosafe II).
(§5) To determine the Km value for P-Eth, enzymatic reactions were carried out with 0-0.8 mM of P-Eth at constant 1.5 mM SAM. Similarly Km value for SAM was carried with 0–0.6 mM SAM at constant 2 mM P-Ethanolamine (P-Etn). The inhibition of PvPMT and PkPMT by AQ, CQ and NSC158011were also examined using the same radiometric PMT transmethylation assay. Enzyme activity was evaluated at 0, 100, 500 and 1000 μM of the inhibitor at a fixed concentration of P-Eth (2 mM) and SAM (1.5 mM). To calculate IC50 the data was fitted to non-linear regression analysis in the following equation Y = 100/(1 + ([X]/IC50)), where Y is % enzyme activity and X is inhibitor concentration using Graph pad software.

PvPMT [4] = target: T2, PvPMT; experiment: kinetic parameters of PvPMT, radiometric assay; type: biochemical; details: varied substrate, other constant (SAM 1.5 mM or P-Etn 2.0 mM)
Procedure: as §3, §4, §5

[5] = substrate: C[S+](CC[C@H](N)C(=O)[O-])C[C@H]1O[C@@H](n2cnc3c(N)ncnc32)[C@H](O)[C@@H]1O; experiment: kinetic parameters of PvPMT, radiometric assay; type: biochemical, Plasmodium vivax; details: other: PvPMT; varied substrate, other constant (SAM 1.5 mM or P-Etn 2.0 mM); 37.0 °C
Procedure: as §3, §4
(§6) To determine the Km value for P-Eth, enzymatic reactions were carried out with 0-0.8 mM of P-Eth at constant 1.5 mM SAM. […]

[6] = substrate: C[S+](CC[C@H](N)C(=O)[O-])C[C@H]1O[C@@H](n2cnc3c(N)ncnc32)[C@H](O)[C@@H]1O; experiment: kinetic parameters of PkPMT, radiometric assay; type: biochemical, Plasmodium knowlesi; details: other: PkPMT; varied substrate, other constant (SAM 1.5 mM or P-Etn 2.0 mM); 37.0 °C
Procedure: as §3, §4, §6

**Q.** With `CCN(CC)CCCC(C)Nc1ccnc2cc(Cl)ccc12` (stereo not shown) [CQ, chloroquine] as the molecule, how does the IC50 (PkPMT [1]) read?
**A.** 987 µM

**Q.** What about the IC50 (PvPMT [2]) of the same molecule?
**A.** 146 µM

**Q.** How did the Kcat (PkPMT [3]) turn out when `NCCOP(=O)(O)O` [P-Etn, phosphoethanolamine] was run?
**A.** 0.00433 ± 0.00033 s⁻¹

**Q.** And the Km (PkPMT [3])?
**A.** 100 ± 30 µM

**Q.** What about the Vmax (PkPMT [3]) of the same molecule?
**A.** 86.01 ± 8.35 nmolmin^−1 mg^−1Protein

**Q.** And the Kcat (PvPMT [4])?
**A.** 0.00083 ± 0.00017 s⁻¹

**Q.** What about the Km (PvPMT [4]) of the same molecule?
**A.** 210 ± 70 µM

**Q.** And the Vmax (PvPMT [4])?
**A.** 18.67 ± 2.93 nmolmin^−1 mg^−1Protein

**Q.** Which Vmax (PkPMT [3]) does the source give for `C[S+](CC[C@H](N)C(=O)[O-])C[C@H]1O[C@@H](n2cnc3c(N)ncnc32)[C@H](O)[C@@H]1O` (stereo partly shown) [SAM, S-adenosylmethionine] here?
**A.** 119.7 ± 15.41 nmolmin^−1 mg^−1Protein

**Q.** And the Vmax (PvPMT [4])?
**A.** 12.62 ± 0.95 nmolmin^−1 mg^−1Protein

B1: PvPMT (Plasmodium vivax Sal-1) (protein)
chain: T2 sequence (A5K867 1-264)
**Q.** With B1 as the molecule, how does the Km [5] read?
**A.** 230 ± 70 µM

**Q.** What about the kcat [5] of the same molecule?
**A.** 0.000667 ± 0.000333 s⁻¹

**Q.** What about the kcat/Km [5] of the same molecule?
**A.** 2.83 M⁻¹ s⁻¹

B2: PkPMT (Plasmodium knowlesi strain H) (protein)
chain: T1 sequence (A0A384KJX3 1-264)
**Q.** Which Km [6] does the source give for B2 here?
**A.** 270 ± 90 µM

**Q.** And the kcat [6]?
**A.** 0.00617 ± 0.0005 s⁻¹

**Q.** What about the kcat/Km [6] of the same molecule?
**A.** 22.8 M⁻¹ s⁻¹
